Measured values from patent publication US20250057813A1, “APOPTOSIS RELATED PROTEIN IN THE TGF-BETA SIGNALING PATHWAY (ARTS) MIMETIC COMPOUNDS, COMPOSITIONS, METHODS AND USES THEREOF IN INDUCTION OF APOPTOSIS” (Carmel-Haifa University Economic Corporation Ltd., priority 2022, published 2025).

Assays:
[1] = biological target: T1, complex formation between XIAP and Bcl-2 (Homo sapiens, UniProt P10415+P98170); assay: Co-immunoprecipitation in HCT 116 XIAP KO cells transfected with GFP-XIAP and Flag-Bcl-2; format: cell-based; conditions: 20 uM B3
T1 construct: expressed in transfected cells; host or cells: HCT 116 XIAP KO cells
T1 sequence (P98170 whole entry): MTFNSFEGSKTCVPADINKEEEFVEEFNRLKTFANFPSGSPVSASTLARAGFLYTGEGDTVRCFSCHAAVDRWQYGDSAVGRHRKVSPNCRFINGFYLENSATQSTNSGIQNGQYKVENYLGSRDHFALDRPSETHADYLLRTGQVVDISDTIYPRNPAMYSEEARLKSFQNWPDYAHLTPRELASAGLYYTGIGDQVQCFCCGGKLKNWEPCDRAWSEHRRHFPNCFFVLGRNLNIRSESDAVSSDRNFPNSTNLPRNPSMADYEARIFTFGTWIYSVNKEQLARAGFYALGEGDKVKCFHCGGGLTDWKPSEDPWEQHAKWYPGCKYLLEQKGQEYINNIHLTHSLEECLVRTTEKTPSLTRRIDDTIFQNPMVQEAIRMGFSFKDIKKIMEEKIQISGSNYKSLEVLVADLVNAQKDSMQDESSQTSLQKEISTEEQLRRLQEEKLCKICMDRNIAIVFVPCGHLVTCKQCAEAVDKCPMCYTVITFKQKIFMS
T1 sequence (P10415 whole entry): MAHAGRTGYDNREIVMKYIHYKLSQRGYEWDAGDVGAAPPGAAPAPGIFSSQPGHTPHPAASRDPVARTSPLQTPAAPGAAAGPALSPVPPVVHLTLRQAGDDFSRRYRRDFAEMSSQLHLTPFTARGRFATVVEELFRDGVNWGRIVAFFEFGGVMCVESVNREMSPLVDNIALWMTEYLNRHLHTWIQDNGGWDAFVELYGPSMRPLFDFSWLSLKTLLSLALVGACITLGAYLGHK
Description: Protein extracts were prepared with lysis buffer containing 150 mM NaCl, 50 mM Tris-HCl (pH 8), 1% NP-40, 0.5% deoxycholate acid with protease inhibitors (mini complete, Roche). Protein levels were determined and equal amounts were used for each sample. Lysates were pre-cleared with […] mouse IgG (Sigma) coupled with protein A/G sepharose mix (Amersham Biosciences). Complexes were incubated overnight at 4° C., followed by low-speed centrifugation. Supernatants were immunoprecipitated using […] of monoclonal anti-Bcl-2 antibodies (BD) overnight. Protein A/G sepharose beads were added to immunoprecipitate complex for 4 hours, collected and washed four times with PBS and then responded and heated in Sample buffer ×2 for 10 minutes.

PBMC = assay: Viability assay (SRB), normal cell control; format: cell-based, Human; conditions: 72 hrs, 10 mM to 0.1 μM
Description: The assay was performed at six tenfold serial dilutions of the B3 compounds: 10 mM (stock), 1 mM, 100 μM, 10 μM, 1 μM and 0.1 μM. The screen was performed on 93 cancer cell lines and PBMC as normal cell control. The B3 compound was incubated with the cells for 72 hours. The following cancer cell lines were screened:
The Sulforhodamine B (SRB) assay was used as a screening method. Briefly, the method relies on the property of SRB, to bind stoichiometrically to proteins under mild acidic conditions and to be extracted under basic conditions. Thus, the amount of bound dye can be used as a proxy for cell mass, which can then be extrapolated to measure cell proliferation. The protocol can be divided into four main steps: preparation of treatment, incubation of cells with treatment of choice, cell fixation and SRB staining and absorbance measurement.

[2] = test system: p53 Ubiquitylation in HCT 116 WT; assay: In vivo ubiquitylation assay of p53; format: cell-based; conditions: 20 μM B3, 5 h, with proteasome inhibitor
Description: (§1) All cells were transiently transfected with a Ub-HA (ubiquitin-tagged with HA) construct and treated with a proteasome inhibitor (Bortezomib or MG-132, at 20 μM for 6 h). after 1 h of proteasome inhibitor incubation, B3 (20 μM) or DMSO was added to the medium for an additional 5 h. After 6 h of Bortezomib/MG-132 along with 5 h of B3 treatments, the cells were harvested and lysed using RIPA buffer (Tris-HCl pH 7.5 50 mM, NaCl 150 mM, NP-40 (Igepal) 0.3%) containing protease inhibitor cocktail (Complete, Roche), 100 µg/ml PMSF, 5 mM N-ethylmaleimide, and 5 mM iodoacetamide to preserve ubiquitin chains. Following 15 min of centrifugation (10,000×g, 4° C.), the supernatant was transferred into a clean Eppendorf tube. A ubiquitination assay using immunoprecipitation with anti-p53 antibody (CS2524) (endogenous p53 was pulled down) was performed as described above with 1:500 antibody per 1000 μg protein. Poly-ubiquitylated forms of p53 were detected using an anti-p53 antibody (DO-1, sc-126).

[3] = test system: p53 Ubiquitylation in HCT 116 XIAP KO cells; assay: In vivo ubiquitylation assay of p53; format: cell-based; conditions: 20 μM B3, XIAP KO cells
Description: as §1

[4] = test system: MG-63 osteosarcoma cell line; assay: Dose response of cell death with B3 relative to DMSO; format: cell-based; conditions: increasing doses of B3
[5] = biological target: T2, interaction between ARTS and Bcl2 (Homo sapiens, UniProt P10415); assay: BiFC assay between ARTS and Bcl-2; format: cell-based; conditions: 20 μM
T2 construct: expressed in transfected cells; host or cells: A-375 or HeLa wt cells (the legend names both)
T2 sequence (P10415 whole entry): as above
Excerpt: The split-Venus BiFC system was used to evaluate close proximity indicating possible direct binding between pairs of proteins. The proteins were fused either to the N-terminal part of the Venus-YFP (yellow fluorescence protein) (VN) or the C-terminal part (VC). All Venus fragments were fused to the C-terminal sequences of these proteins. The Jun and Fos pair was used as a positive control (P.C.), and the Jun and FosdeltaZIP pair was used as a negative control (N.C.). A vector encoding dsRed was used as a transfection efficiency marker. Cells were seeded in 12 well plates overnight. Cells were then transfected with (Bcl-2-VC, ARTS-VN, XIAP-VN and XIAP-VC) for 24-36 hours. Cells were then treated with apoptotic inducing reagents for 24 hrs.

complex formation between XIAP and Bcl-2 [1]: significantly increase
binding of ARTS to Bcl-2 ([5]; 3 hours): increase
binding of ARTS to Bcl-2 ([5]; 24 hours): no effect
SMILES: Cn1ccnc1C(=O)c1ccc(NC(=O)C(=O)N[C@H](CO)Cc2ccccc2)cc1 [B3, (S)-N1-(1-hydroxy-3-phenylpropan-2-yl)-N2-(4-(1-methyl-1H-imidazole-2-carbonyl)phenyl)oxalamide]
sensitivity of normal cell control to B3 (PBMC): resistant
Ubiquitylation of p53 [2]: inhibit
p53 Ubiquitylation levels [3]: no effect
cell death [4]: dose-dependent death
